Laboratory results: patent US20240384268A1, “Oligonucleotides” (Hudson Institute of Medical Research, priority 2021, published 2024)
In the oligonucleotide strings, read from the 5' end, every base follows the letter of its sugar. An asterisk marks phosphorothioate; unmarked linkages are phosphodiester. Other units and linkages are bracketed, terminal groups are in braces. A string of capitals states the bases alone. d = 2'-deoxy (DNA); m = 2'-O-methyl

Molecular target: T1, TLR8 (Homo sapiens, UniProt Q9NR97)
T1 sequence (Q9NR97 27-1041): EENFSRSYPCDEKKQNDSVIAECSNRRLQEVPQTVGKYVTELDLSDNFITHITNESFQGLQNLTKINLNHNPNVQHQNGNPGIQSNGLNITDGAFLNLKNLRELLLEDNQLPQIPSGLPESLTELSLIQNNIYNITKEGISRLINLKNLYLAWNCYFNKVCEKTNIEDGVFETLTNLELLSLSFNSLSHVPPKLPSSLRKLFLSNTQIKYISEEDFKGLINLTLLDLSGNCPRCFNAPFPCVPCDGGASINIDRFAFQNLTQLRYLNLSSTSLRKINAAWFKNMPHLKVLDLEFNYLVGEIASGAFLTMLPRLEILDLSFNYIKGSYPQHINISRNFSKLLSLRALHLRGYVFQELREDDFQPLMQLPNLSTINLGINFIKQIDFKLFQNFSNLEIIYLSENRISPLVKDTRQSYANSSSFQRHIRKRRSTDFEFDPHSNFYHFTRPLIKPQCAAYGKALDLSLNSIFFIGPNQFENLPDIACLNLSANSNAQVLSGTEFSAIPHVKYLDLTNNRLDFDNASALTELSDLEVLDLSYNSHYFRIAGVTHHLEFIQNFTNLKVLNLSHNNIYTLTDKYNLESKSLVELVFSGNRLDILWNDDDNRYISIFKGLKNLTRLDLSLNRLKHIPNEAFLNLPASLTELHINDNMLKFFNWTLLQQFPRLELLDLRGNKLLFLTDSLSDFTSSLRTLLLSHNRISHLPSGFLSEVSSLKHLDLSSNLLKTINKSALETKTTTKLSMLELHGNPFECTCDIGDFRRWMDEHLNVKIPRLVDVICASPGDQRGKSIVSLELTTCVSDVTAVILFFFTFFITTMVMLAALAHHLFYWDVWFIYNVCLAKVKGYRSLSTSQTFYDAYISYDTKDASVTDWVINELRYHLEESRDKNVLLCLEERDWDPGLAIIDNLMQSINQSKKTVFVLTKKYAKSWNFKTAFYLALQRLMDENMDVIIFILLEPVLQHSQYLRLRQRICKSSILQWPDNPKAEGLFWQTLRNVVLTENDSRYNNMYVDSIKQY
Assay: HEK-TLR8 NF-κB-luciferase reporter, R848 or Motolimod stimulation (potentiation or inhibition)
Format: cell-based
Parameters: expressed in transfected cells; host or cells: 293XLhTLR8 (HEK293)
Conditions: for TLR8 100 nM: MOE-modified ASO at 100 nM; for TLR8 100 nM / TLR8 500 nM: averaged NF-κB-Luciferase relative to R848 condition (fold increase); for TLR8 500 nM: MOE-modified ASO at 500 nM; for TLR8-500 nM: averaged NF-κB-Luciferase relative to R848: HEK-TLR8, 500 nM ASO, fold increase relative to R848 without ASO (Alharbi et al., 2020)

Substance: GCTGACAAAGATTCACTGGT (antisense; 2'-MOE modified, pattern not given here) [HPRT-1353 MOE]
- TLR8 100 nM: 1.475
- TLR8 500 nM: 3.067

Substance: mC*mC*mA*mU*mG*T*C*C*C*A*G*G*C*C*T*mC*mC*mA*mG*mU (CCAUGTCCCAGGCCTCCAGU; sugars from the 5' end m5 d10 m5, all phosphorothioate, methylation of C not given here) [[CDKN2B-AS1]2227]
- TLR8-500 nM: averaged NF-κB-Luciferase relative to R848: 1.46 fold

Substance: mU*mU*mG*mG*mC*C*T*G*T*G*G*A*T*G*C*mU*mU*mU*mG*mU (mU*mU*mG*mG*mC*dC*dT*dG*dT*dG*dG*dA*dT*dG*dC*mU*mU*mU*mG*mU) [[LINC-PINT]2673.1]
- TLR8-500 nM: averaged NF-κB-Luciferase relative to R848: 0.94 fold

Substance: mA*mG*mC*mC*mG*A*A*C*A*G*A*A*G*G*A*mG*mC*mG*mU*mC (AGCCGAACAGAAGGAGCGUC; sugars from the 5' end m5 d10 m5, all phosphorothioate, methylation of C not given here) [[LINC-PINT]587 KL]
- TLR8-500 nM: averaged NF-κB-Luciferase relative to R848: 3.73 fold

Substance: mU*mU*mG*mU*mG*A*A*A*A*G*A*T*T*A*T*mC*mU*mU*mC*mU (mU*mU*mG*mU*mG*dA*dA*dA*dA*dG*dA*dT*dT*dA*dT*mC*mU*mU*mC*mU) [[CDKN2B-AS1]2138]
- TLR8-500 nM: averaged NF-κB-Luciferase relative to R848: 1.94 fold

Substance: mA*mA*mA*mA*mU*A*A*G*G*G*G*A*A*T*A*mG*mG*mG*mG*mA (mA*mA*mA*mA*mU*dA*dA*dG*dG*dG*dG*dA*dA*dT*dA*mG*mG*mG*mG*mA; antisense) [[CDKN2B-AS1]79]
- TLR8-500 nM: averaged NF-κB-Luciferase relative to R848: 0.71 fold

Substance: AGTCGTAGTTGCTTCCTAAC (antisense; 2'-MOE modified, pattern not given here) [MB21D1-1181 MOE]
- TLR8 100 nM: 3.091
- TLR8 500 nM: 5.889

Substance: mC*mA*mG*mG*mC*C*T*C*C*A*G*T*G*T*C*mU*mU*mC*mU*mC (mC*mA*mG*mG*mC*dC*dT*dC*dC*dA*dG*dT*dG*dT*dC*mU*mU*mC*mU*mC; antisense) [[CDKN2B-AS1]2219]
- TLR8-500 nM: averaged NF-κB-Luciferase relative to R848: 3.89 fold

Substance: mG*mU*mC*mC*mG*T*A*C*C*T*C*C*A*C*C*mC″mA*mC*mC*mG [[LINC-PINT]727.1]
- TLR8-500 nM: averaged NF-κB-Luciferase relative to R848: 3.70 fold

Substance: mA*mG*mA*mA*mA*G*A*A*G*C*A*A*A*G*A*mU*mU*mC*mA*mA (AGAAAGAAGCAAAGAUUCAA; sugars from the 5' end m5 d10 m5, all phosphorothioate, methylation of C not given here) [[CDKN2B-AS1]1519]
- TLR8-500 nM: averaged NF-κB-Luciferase relative to R848: 2.78 fold

Substance: TGGGCTGGAATCCGAGTTAT (antisense; 2'-MOE modified, pattern not given here) [EGFR-4705 MOE]
- TLR8 100 nM: 1.452
- TLR8 500 nM: 2.058

Substance: GGTTTTGGCTGGGATCAAGT (antisense; 2'-MOE modified, pattern not given here) [CAMSAP1-4697 MOE]
- TLR8 100 nM: 5.496
- TLR8 500 nM: 6.332

Substance: mC*mA*mC*mU*mG*T*A*T*T*T*T*A*T*T*A*mC*mA*mG*mA*mA (mC*mA*mC*mU*mG*dT*dA*dT*dT*dT*dT*dA*dT*dT*dA*mC*mA*mG*mA*mA; antisense) [[LINC-PINT]2990]
- TLR8-500 nM: averaged NF-κB-Luciferase relative to R848: 4.86 fold

Substance: mU*mG*mU*mU*mU*C*C*C*C*G*G*A*G*A*G*mC*mA*mA*mU*mG (UGUUUCCCCGGAGAGCAAUG; antisense; sugars from the 5' end m5 d10 m5, all phosphorothioate, methylation of C not given here) [[LINC-PINT]501 KL]
- TLR8-500 nM: averaged NF-κB-Luciferase relative to R848: 2.04 fold

Substance: mA*mG*mA*mU*mU*A*T*C*T*T*C*T*T*T*T*mA*mA*mU*mU*mU (AGAUUATCTTCTTTTAAUUU; sugars from the 5' end m5 d10 m5, all phosphorothioate, methylation of C not given here) [[CDKN2B-AS1]2130]
- TLR8-500 nM: averaged NF-κB-Luciferase relative to R848: 6.26 fold

Substance: mU*mC*mU*mC*mU*C*T*G*G*T*C*C*C*A*T*mC*mC*mC*mU*mU (mU*mC*mU*mC*mU*dC*dT*dG*dG*dT*dC*dC*dC*dA*dT*mC*mC*mC*mU*mU; antisense) [[LINC-PINT]110]
- TLR8-500 nM: averaged NF-κB-Luciferase relative to R848: 11.27 fold

Substance: mU*mC*mC*mC*mA*T*C*C*C*T*T*C*T*G*C*mU*mG*mA*mC*mA (UCCCATCCCTTCTGCUGACA; sugars from the 5' end m5 d10 m5, all phosphorothioate, methylation of C not given here) [[LINC-PINT]101]
- TLR8-500 nM: averaged NF-κB-Luciferase relative to R848: 10.88 fold

Substance: mU*mA*mA*mA*mA*T*A*A*G*G*G*G*A*A*T*mA*mG*mG*mG*mG (mU*mA*mA*mA*mA*dT*dA*dA*dG*dG*dG*dG*dA*dA*dT*mA*mG*mG*mG*mG) [[CDKN2B-AS1]80]
- TLR8-500 nM: averaged NF-κB-Luciferase relative to R848: 1.30 fold

Substance: mA*mA*mU*mA*mU*C*T*G*C*T*G*C*C*C*A*mC*mC*mU*mU*mC (mA*mA*mU*mA*mU*dC*dT*dG*dC*dT*dG*dC*dC*dC*dA*mC*mC*mU*mU*mC; antisense) [[CDKN2B-AS1]832]
- TLR8-500 nM: averaged NF-κB-Luciferase relative to R848: 4.45 fold

Substance: mG*mA*mU*mG*mG*T*T*C*C*A*G*T*C*C*C*mU*mC*mU*mU*mC (GAUGGTTCCAGTCCCUCUUC; antisense; sugars from the 5' end m5 d10 m5, all phosphorothioate, methylation of C not given here) [[LINC-PINT]1497.1]
- TLR8-500 nM: averaged NF-κB-Luciferase relative to R848: 1.01 fold

Substance: CGGAGGTCTTGGCTTCGTGG (antisense; 2'-MOE modified, pattern not given here) [MB21D1-525 MOE]
- TLR8 100 nM: 2.197
- TLR8 500 nM: 3.257

Substance: mU*mG*mA*mC*mA*A*A*A*C*A*A*T*A*A*T*mA*mA*mC*mA*mG (mU*mG*mA*mC*mA*dA*dA*dA*dC*dA*dA*dT*dA*dA*dT*mA*mA*mC*mA*mG) [[LINC-PINT]384]
- TLR8-500 nM: averaged NF-κB-Luciferase relative to R848: 2.57 fold

Substance: mG*mC*mA*mA*mG*G*C*A*G*A*G*A*A*A*C*mU*mC*mC*mA*mG (GCAAGGCAGAGAAACUCCAG; sugars from the 5' end m5 d10 m5, all phosphorothioate, methylation of C not given here) [[LINC-PINT]1315 KL]
- TLR8-500 nM: averaged NF-κB-Luciferase relative to R848: 2.69 fold

Substance: mA*mA*mU*mU*mU*A*A*A*G*C*A*T*G*A*A*mU*mA*mU*mU*mA (mA*mA*mU*mU*mU*dA*dA*dA*dG*dC*dA*dT*dG*dA*dA*mU*mA*mU*mU*mA) [[CDKN2B-AS1]645]
- TLR8-500 nM: averaged NF-κB-Luciferase relative to R848: 5.02 fold

Substance: TGGGTTACGGCTCAGTATGG (antisense; 2'-MOE modified, pattern not given here) [CAMSAP1-4295 MOE]
- TLR8 100 nM: 1.610
- TLR8 500 nM: 1.538

Substance: mU*mC*mU*mC*mC*A*T*G*T*C*C*C*A*G*G*mC*mC*mU*mC*mC (mU*mC*mU*mC*mC*dA*dT*dG*dT*dC*dC*dC*dA*dG*dG*mC*mC*mU*mC*mC; antisense) [[CDKN2B-AS1]2230]
- TLR8-500 nM: averaged NF-κB-Luciferase relative to R848: 9.17 fold

Substance: mU*mC*mC*mC*mA*A*C*T*C*T*T*C*T*A*A*mC*mU*mC*mG*mU (mU*mC*mC*mC*mA*dA*dC*dT*dC*dT*dT*dC*dT*dA*dA*mC*mU*mC*mG*mU; antisense) [[LINC-PINT]1284 KL]
- TLR8-500 nM: averaged NF-κB-Luciferase relative to R848: 13.35 fold

Substance: mG*mU*mC*mC*mC*A*G*G*C*C*T*C*C*A*G*mU*mG*mU*mC*mU (mG*mU*mC*mC*mC*dA*dG*dG*dC*dC*dT*dC*dC*dA*dG*mU*mG*mU*mC*mU; antisense) [[CDKN2B-AS1]2223]
- TLR8-500 nM: averaged NF-κB-Luciferase relative to R848: 2.17 fold
